According to US20240382510A1, “NEW COMBINATION DRUG FOR TREATING CORONAVIRUS INFECTIONS, PHARMACEUTICAL COMPOSITION AND USE THEREOF” (priority 2021, published 2024):
Like-named read-outs stand apart in the source and are kept apart here.

Experiments:
[1] = rats
Description: Among them, group 4 was converted according to the clinical administration of 3 tablets, and the remaining experimental groups were converted according to the clinical administration of 4 tablets.
A single dose was administered to healthy SD rats, and blood was taken according to the blood collection plan. After sample processing, analysis, and data processing, the plasma concentration-time curves of each group were drawn respectively. The pharmacokinetic parameters of each group of medicines in rats was calculate by WinNonlin 6.1 software.

SARS-CoV-2 = conditions: anti-SARS-CoV-2, literature values; cited from earlier work
[2] = literature values; cited from earlier work
[3] = tested on: SARS-CoV-2 (hCoV-19/China/CAS-B001/2020); test: Synergistic anti-SARS-CoV-2 activity (Example 4), CPE in Vero-E6 cells; format: cell-based; conditions: Severe acute respiratory syndrome coronavirus 2, Vero C1008; wild strain hCoV-19/China/CAS-B001/2020, Vero-E6, CPE after 72 hours
in vivo = format: in vitro ADME; conditions: plasma
Description: In addition, due to the high plasma protein binding rate of atovaquone and nitazoxanide, both about 99% (refer to Beerahee M Clinical pharmacology of atovaquone and proguanil hydrochloride. [J]. Journal of Travel Medicine, 1999, 6 suppl 1:S13-7.; Alinia™ PRESCRIBING INFORMATION-FDA.). The present application also studied and compared the in vivo plasma protein binding rate of atovaquone and nitazoxanide combined administration and separate administration. […] Compared with alone administration, combined administration will not affect the distribution and elimination of the two drugs in vivo, and competition for plasma protein binding site by one drug will not result in an increase in the free form of another drug.

[4] = literature (Beerahee 1999; Alinia prescribing information); cited from earlier work
[5] = atovaquone combined with nitazoxanide, read-out: average plasma protein binding rate, combined administration group (converted)
[6] = separate administration, read-out: average plasma protein binding rate, separate administration group (converted)

Row | Structure (SMILES) | plasma concentration administered alone vs in combination, within 0.5-4 hours after administration ([1]; 13.9 mg/kg, group 3 vs group 5 and group 4) | exposure level (AUC0-24h) administered alone compared with combination at the same dose ([1]; single dose) | EC50 (SARS-CoV-2) [nM] | Plasma concentration [2] [nM] | EC50 [3] [nM] | fraction unbound (in vivo; [5]) | fraction unbound (in vivo; [6]) | plasma concentration trend at 16-24 hours, administered alone ([1]; single dose) | plasma concentration trend at 16-24 hours, combined administration ([1]; single dose) | plasma protein binding rate [4] | plasma concentration administered alone vs in combination at the same dose ([1]; single dose 46.6 mg/kg, group 1 vs group 5)
1 | NC(=O)c1ncn([C@@H]2O[C@H](CO)[C@@H](O)[C@H]2O)n1 [RBV, 1-[(2R,3R,4S,5R)-3,4-dihydroxy-5-(hydroxymethyl)Oxolane-2-yl]-1H-1,2,4-triazole-3-carboxamide] | greater | slightly greater |  |  |  |  |  |  |  |  | 
2 | CC(C)C(=O)OC[C@H]1O[C@@H](n2ccc(NO)nc2=O)[C@H](O)[C@@H]1O [Molnupiravir] |  |  | 320 to 2030 | 2090 |  |  |  |  |  |  | 
3 | O=C1C(O)=C([C@H]2CC[C@H](c3ccc(Cl)cc3)CC2)C(=O)c2ccccc21 [ATQ, 2-(trans-4-(4-chlorophenyl)cyclohexyl)-3-hydroxy-1,4-naphthalenedione] |  | similar |  |  | 2040 | 0.0014 | 0.0016 | downward trend | flat or rising trend | about 99% | 
4 | CC(=O)Oc1ccccc1C(=O)Nc1ncc([N+](=O)[O-])s1 [NTZ, o-[N-(5-nitro-1,3-thiazol-2-yl)carbamoyl]phenol acetate] |  |  |  |  | 4900 | 0.0016 | 0.0105 |  |  | about 99% | no obvious difference
